Assay results published in EP1806348A2, “Pyrido (2,3-D)Pyrimidines as inhibitors of cellular proliferation” (Warner-Lambert Company LLC, priority 1997, dated 1998).

How the values were obtained:
Assay type in all cases: biochemical
cdk6/D3 = cdk6/D3 (Homo sapiens, UniProt Q00534); assay: cdk6/D3 enzyme assay, similar to cdk4 assay; details: read-out: IC50 against cdk6/D3
Method: (§1) The total volume was 0.1 mL containing a final concentration of 20 mM TRIS (tris[hydroxymethyl]aminomethane), at pH 7.4, 50 mM NaCl, 1 mM dithiothreitol, 10 mM MgCl2, 25 µM ATP containing 0.25 µCi of [^32P]ATP, 20 ng of cdk4, 1 µg of retinoblastoma, and appropriate dilutions of a compound of the present invention. All components except the ATP were added to the wells, and the plate was placed on a plate mixer for 2 minutes. The reaction was started by adding [^32P]ATP and the plate was incubated at 25°C for 15 minutes. The reaction was terminated by addition of 0.1 mL of 20% trichloroacetic acid (TCA). The plate was kept at 4°C for at least 1 hour to allow the substrate to precipitate. The wells were then washed five times with 0.2 mL of 10% TCA and ^32P incorporation was determined with a beta plate counter (Wallac Inc., Gaithersburg, MD).
(§2) Several of the invention compounds have also shown good inhibitory activity against cdk6/D2 and cdk6/D3 enzymes. These assays are carried out in a manner similar to that described above for cdk4, by simply employing the appropriate cdk6 kinase enzyme.

cdk6/D2 = cdk6/D2 (Homo sapiens, UniProt Q00534); assay: cdk6/D2 enzyme assay, similar to cdk4 assay; details: read-out: IC50 against cdk6/D2
Method: as §1, §2

cdk2/cyclinE = cdk2/cyclinE (Homo sapiens, UniProt P24941); assay: Cyclin-dependent kinase assay (cdk2/cyclinE); details: Table 1; read-out: cdk2/E IC50
Method: (§3) All components except the ATP were added to the wells, and the plate was placed on a plate mixer for 2 minutes. […] The reaction was terminated by addition of 0.1 mL of 20% TCA. The plate was kept at 4°C for at least 1 hour to allow the substrate to precipitate. The wells were then washed five times with 0.2 mL of 10% TCA and ^32P incorporation determined with a beta plate counter (Wallac Inc., Gaithersburg, MD).

[1] = biological target: T1, human FGF-1 (flg) receptor tyrosine kinase (Homo sapiens, UniProt P11362); assay: FGF receptor tyrosine kinase assay; details: Table 3
T1 construct: amplify a fragment of DNA that codes for the intracellular tyrosine kinase domain; made in house; host or cells: SF9 insect cells (baculovirus)
Description: (§4) Full-length cDNAs for the mouse PDGF-β and human FGF-1 (flg) receptor tyrosine kinases were obtained from J. Escobedo and prepared as described in J. Biol. Chem., 1991;262:1482-1487. PCR primers were designed to amplify a fragment of DNA that codes for the intracellular tyrosine kinase domain. The fragment was inserted into a baculovirus vector, cotransfected with AcMNPV DNA, and the recombinant virus isolated. SF9 insect cells were infected with the virus to overexpress the protein, and the cell lysate was used for the assay. Assays were performed in 96-well plates (100 µL/incubation/well), and conditions were optimized to measure the incorporation of ^32P from γ^32P-ATP into a glutamate-tyrosine co-polymer substrate. Briefly, to each well was added 82.5 µL of incubation buffer containing 25 mM Hepes (pH 7.0), 150 mM NaCl, 0.1% Triton X-100, 0.2 mM PMSF, 0.2 mM Na3VO4, 10 mM MnCl2, and 750 µg/mL of Poly (4:1) glutamate-tyrosine followed by […] of inhibitor and 5 µL of enzyme lysate (7.5 µg/µL FGF-TK or 6.0 µg/µL PDGF-TK) to initiate the reaction. Following a 10 minute incubation at 25°C, […] of γ^32P-ATP (0.4 µCi plus 50 µM ATP) was added to each well, and samples were incubated for an additional 10 minutes at 25°C. The reaction was terminated by the addition of 100 µL of 30% trichloroacetic acid (TCA) containing 20 mM sodium pyrophosphate and precipitation of material onto glass fiber mats (Wallac). Filters were washed three times with 15% TCA containing 100 mM sodium pyrophosphate, and the radioactivity retained on the filters counted in a Wallac 1250 Betaplate reader. Nonspecific activity was defined as radioactivity retained on the filters following incubation of samples with buffer alone (no enzyme). Specific enzymatic activity (enzyme plus buffer) was defined as total activity minus nonspecific activity. […]

cdk2/cyclinA = cdk2/cyclinA (Homo sapiens, UniProt P24941); assay: Cyclin-dependent kinase assay (cdk2/cyclinA); details: Table 1
Method: as §3

cdk4/D = cdk4/D (Homo sapiens, UniProt P11802); assay: Cyclin-dependent kinase 4 (cdk4) enzyme assay, 32P incorporation into retinoblastoma; details: Table 1; 25 µM ATP, retinoblastoma substrate
Method: A typical assay, for instance, measures inhibitory activity against the cyclin D dependent kinase 4 enzyme (cdk4/D). […] The cdk 4 assay was carried out as follows.
as §3, with “trichloroacetic acid (TCA).” for “TCA.”, “incorporation was” for “incorporation”

[2] = biological target: T2, mouse PDGF-β receptor tyrosine kinase (Mus musculus, UniProt P05622); assay: PDGF receptor tyrosine kinase assay; details: Table 3
T2 construct: amplify a fragment of DNA that codes for the intracellular tyrosine kinase domain; made in house; host or cells: SF9 insect cells (baculovirus)
Description: as §4

cdc2/cyclinB = cdc2/cyclinB (Homo sapiens, UniProt P06493); assay: Cyclin-dependent kinase assay (cdc2/cyclinB); details: Table 1; read-out: cdk1/B IC50
Method: as §3

c-Src = c-Src (Homo sapiens, UniProt P12931); assay: c-Src protein kinase assay; details: Table 5
Method: C-Src kinase was purified from baculovirus infected insect cell lysates using an antipeptide monoclonal antibody directed against the N-terminal amino acids (amino acids 2-17) of c-Src. The antibody, covalently linked to 0.65 µm latex beads, was added to a suspension of insect cell lysis buffer comprised of 150 mM NaCl, 50 mM Tris pH 7.5, 1 mM DTT, 1% NP-40,2 mM EGTA, 1 mM sodium vanadate, 1 mM PMSF, 1 µg/mL each of leupeptin, pepstatin, and aprotinin. Insect cell lysate containing c-Src protein was incubated with these beads for 3 to 4 hours at 4°C with rotation. At the end of the lysate incubation, the beads were rinsed three times in lysis buffer, resuspended in lysis buffer containing 10% glycerol, and frozen. These latex beads were thawed, rinsed three times in assay buffer (40 mM Tris, pH 7.5, […]) and suspended in the same buffer. In a Millipore 96-well plate with a 0.65 µm polyvinylidine membrane bottom were added the reaction components: 10 µL c-Src beads, 10 µL of 2.5 mg/mL poly GluTyr substrate, 5 µM ATP containing 0.2 µCi labeled ^32P-ATP, 5 µL DMSO containing inhibitors or as a solvent control, and buffer to make the final volume 125 µL. The reaction was started at room temperature by addition of the ATP and quenched 10 minutes later by the addition of 125 µL of 30% TCA, 0.1 M sodium pyrophosphate for 5 minutes on ice. […] The filters were then punched, counted in a liquid scintillation counter, and the data examined for inhibitory activity in comparison to a known inhibitor such as erbstatin. […]

Sequence of c-Src (P12931 whole entry, the tested form may be a part): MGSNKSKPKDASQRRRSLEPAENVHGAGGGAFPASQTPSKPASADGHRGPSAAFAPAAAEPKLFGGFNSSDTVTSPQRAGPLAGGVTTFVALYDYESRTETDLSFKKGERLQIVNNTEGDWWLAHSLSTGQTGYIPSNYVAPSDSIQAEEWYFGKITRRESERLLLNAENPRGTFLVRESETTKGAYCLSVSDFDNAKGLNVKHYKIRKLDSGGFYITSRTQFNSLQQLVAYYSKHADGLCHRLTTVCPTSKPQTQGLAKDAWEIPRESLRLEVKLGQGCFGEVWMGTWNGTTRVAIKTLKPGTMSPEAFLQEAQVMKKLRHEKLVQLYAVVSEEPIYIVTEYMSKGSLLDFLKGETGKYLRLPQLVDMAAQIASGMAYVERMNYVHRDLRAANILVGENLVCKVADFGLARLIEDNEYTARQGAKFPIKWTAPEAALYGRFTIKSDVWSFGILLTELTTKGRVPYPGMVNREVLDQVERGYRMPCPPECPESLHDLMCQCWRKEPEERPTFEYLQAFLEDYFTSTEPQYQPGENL
T1 sequence (P11362 478-767 limits assumed): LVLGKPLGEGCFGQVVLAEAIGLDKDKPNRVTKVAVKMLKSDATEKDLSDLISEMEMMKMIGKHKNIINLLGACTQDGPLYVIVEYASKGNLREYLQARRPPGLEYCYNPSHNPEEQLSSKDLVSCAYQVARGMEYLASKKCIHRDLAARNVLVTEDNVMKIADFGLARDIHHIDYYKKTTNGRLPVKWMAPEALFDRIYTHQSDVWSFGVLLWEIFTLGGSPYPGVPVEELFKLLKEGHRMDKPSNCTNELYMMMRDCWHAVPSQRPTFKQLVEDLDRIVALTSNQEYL
Sequence of cdk4/D (P11802 whole entry): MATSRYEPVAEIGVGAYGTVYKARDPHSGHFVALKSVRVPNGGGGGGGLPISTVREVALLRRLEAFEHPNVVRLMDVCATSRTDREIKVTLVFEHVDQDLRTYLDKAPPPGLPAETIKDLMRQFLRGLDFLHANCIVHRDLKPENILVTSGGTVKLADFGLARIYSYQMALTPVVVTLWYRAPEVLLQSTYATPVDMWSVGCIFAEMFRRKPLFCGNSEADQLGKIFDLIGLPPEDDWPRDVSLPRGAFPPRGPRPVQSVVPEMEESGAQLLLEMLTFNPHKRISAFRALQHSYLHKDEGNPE
Sequence of cdk4/D (P24385 whole entry, further chain): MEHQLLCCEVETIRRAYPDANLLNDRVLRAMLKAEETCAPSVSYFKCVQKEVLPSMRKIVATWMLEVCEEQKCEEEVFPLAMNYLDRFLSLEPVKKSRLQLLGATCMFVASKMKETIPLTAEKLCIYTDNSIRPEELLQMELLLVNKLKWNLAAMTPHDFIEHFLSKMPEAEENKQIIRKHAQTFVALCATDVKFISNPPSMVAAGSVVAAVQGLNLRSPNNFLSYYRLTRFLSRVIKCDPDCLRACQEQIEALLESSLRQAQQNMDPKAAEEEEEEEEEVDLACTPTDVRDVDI
Sequence of cdc2/cyclinB (P06493 whole entry): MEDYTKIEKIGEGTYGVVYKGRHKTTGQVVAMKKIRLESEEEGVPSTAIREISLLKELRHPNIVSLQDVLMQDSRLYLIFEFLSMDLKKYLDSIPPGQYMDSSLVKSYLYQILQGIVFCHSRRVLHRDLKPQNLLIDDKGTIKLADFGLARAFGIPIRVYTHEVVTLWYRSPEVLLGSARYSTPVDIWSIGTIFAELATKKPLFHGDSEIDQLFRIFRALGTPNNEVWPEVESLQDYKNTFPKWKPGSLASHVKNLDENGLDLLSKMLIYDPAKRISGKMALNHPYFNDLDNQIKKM
Sequence of cdc2/cyclinB (P14635 whole entry, further chain): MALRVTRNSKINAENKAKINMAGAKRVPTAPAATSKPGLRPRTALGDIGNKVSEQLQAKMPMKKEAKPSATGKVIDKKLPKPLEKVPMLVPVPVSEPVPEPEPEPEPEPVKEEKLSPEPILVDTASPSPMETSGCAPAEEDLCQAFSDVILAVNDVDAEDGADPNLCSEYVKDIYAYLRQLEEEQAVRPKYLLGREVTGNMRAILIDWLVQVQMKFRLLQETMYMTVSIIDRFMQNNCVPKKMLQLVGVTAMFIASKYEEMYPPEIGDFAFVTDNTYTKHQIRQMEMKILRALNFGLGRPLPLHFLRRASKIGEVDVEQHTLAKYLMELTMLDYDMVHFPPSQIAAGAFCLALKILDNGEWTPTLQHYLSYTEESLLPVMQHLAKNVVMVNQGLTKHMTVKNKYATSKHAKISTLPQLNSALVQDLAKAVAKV
T2 sequence (P05622 599-961 limits assumed): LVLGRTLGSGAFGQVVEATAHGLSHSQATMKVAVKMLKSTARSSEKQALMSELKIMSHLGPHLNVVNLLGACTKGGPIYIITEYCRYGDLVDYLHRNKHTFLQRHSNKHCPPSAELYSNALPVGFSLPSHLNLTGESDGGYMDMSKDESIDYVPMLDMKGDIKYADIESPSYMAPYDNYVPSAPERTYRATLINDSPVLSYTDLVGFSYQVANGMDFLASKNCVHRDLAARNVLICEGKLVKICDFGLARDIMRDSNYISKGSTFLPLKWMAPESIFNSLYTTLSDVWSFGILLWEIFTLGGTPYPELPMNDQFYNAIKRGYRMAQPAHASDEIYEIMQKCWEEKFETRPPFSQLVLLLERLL
Sequence of cdk6/D2 (Q00534 whole entry): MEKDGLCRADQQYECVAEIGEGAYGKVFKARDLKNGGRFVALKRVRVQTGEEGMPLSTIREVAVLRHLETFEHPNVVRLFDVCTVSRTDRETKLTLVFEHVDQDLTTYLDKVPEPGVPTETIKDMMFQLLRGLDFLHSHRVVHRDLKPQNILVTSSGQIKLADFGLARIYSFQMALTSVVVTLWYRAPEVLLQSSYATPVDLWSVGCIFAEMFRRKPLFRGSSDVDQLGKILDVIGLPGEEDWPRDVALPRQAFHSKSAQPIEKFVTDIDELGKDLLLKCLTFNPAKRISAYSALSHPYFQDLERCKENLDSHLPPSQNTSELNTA
Sequence of cdk6/D2 (P30279 whole entry, further chain): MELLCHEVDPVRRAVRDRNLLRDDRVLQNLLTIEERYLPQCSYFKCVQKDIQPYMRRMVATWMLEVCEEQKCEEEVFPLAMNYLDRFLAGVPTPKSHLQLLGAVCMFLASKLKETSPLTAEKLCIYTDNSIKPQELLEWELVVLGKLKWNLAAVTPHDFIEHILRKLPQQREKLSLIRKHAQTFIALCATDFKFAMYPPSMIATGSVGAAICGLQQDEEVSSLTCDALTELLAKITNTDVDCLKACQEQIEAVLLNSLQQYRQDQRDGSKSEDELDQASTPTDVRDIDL
Sequence of cdk6/D3 (P30281 whole entry): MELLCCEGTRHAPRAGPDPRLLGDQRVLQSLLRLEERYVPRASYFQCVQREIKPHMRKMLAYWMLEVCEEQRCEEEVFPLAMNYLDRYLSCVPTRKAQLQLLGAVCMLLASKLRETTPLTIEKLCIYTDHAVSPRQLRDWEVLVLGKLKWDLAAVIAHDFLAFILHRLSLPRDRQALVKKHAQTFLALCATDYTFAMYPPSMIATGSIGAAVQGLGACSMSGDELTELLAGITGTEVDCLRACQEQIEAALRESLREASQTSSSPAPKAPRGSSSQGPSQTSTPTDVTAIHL
Sequence of cdk6/D3 (Q00534 whole entry): as the sequence (Q00534 whole entry) above

Row | Compound | IC50 (cdk6/D3) | IC50 (cdk6/D2) | IC50 (cdk2/cyclinE) | IC50 [1] | IC50 (cdk2/cyclinA) | IC50 (cdk4/D) | IC50 [2] | IC50 (cdc2/cyclinB) | IC50 (c-Src)
1 | O=c1ccc2cnc(Nc3ccc(N4CCC(CCCO)CC4)cc3)nc2n1C1CC2CCC1C2 (stereo not shown) [Example 214, 8-Bicyclo[2.2.1]hept-2-yl-2-{4-[4-(3-hydroxy-propyl)-piperidin-1-yl]-phenylamino}-8H-pyrido[2,3-d]pyrimidin-7-one] | 13 nM | 7.1 nM | – | – | – | – | – | – | –
2 | CCCn1c(=O)ccc2cnc(Nc3ccccc3)nc21 [Example 41, 2-Phenylamino-8-propyl-8H-pyrido[2,3-d]pyrimidin-7-one] | – | – | 112 nM | 6600 nM | 50 nM | 550 nM | 4960 nM | 299 nM | –
3 | CCN(CC)CCOc1ccc(Nc2ncc3ccc(=O)n(C4CCCCC4)c3n2)cc1C [Example 150, 8-Cyclohexyl-2-[4-(2-diethylamino-ethoxy)-3-methyl-phenylamino]-8H-pyrido[2,3-d]pyrimidin-7-one] | – | – | – | 99 nM | – | – | 99 nM | – | –
4 | CCn1c(=O)ccc2cnc(Nc3ccccc3)nc21 [Example 18, 8-Ethyl-2-phenylamino-8H-pyrido[2,3-d]pyrimidin-7-one] | – | – | 410 nM | 3300 nM | 129 nM | 752 nM | 1780 nM | 1020 nM | –
5 | CCCCn1c(=O)ccc2cnc(Nc3ccccc3)nc21 [Example 40, 8-Butyl-2-phenylamino-8H-pyrido[2,3-d]pyrimidin-7-one] | – | – | 58 nM | – | 37 nM | 1490 nM | – | 205 nM | 19500 nM
6 | CC(C)Cn1c(=O)ccc2cnc(Nc3ccccc3)nc21 [Example 42, 8-Isobutyl-2-phenylamino-8H-pyrido[2,3-d]pyrimidin-7-one] | – | – | – | 4060 nM | – | 400 nM | 3690 nM | – | –
7 | O=c1ccc2cnc(Nc3ccccc3)nc2n1C1CCCC1 [Example 108, 8-Cyclopentyl-2-phenylamino-8H-pyrido[2,3-d]pyrimidin-7-one] | – | – | 110 nM | 2980 nM | 12 nM | 210 nM | 4180 nM | 190 nM | –
8 | O=c1ccc2cnc(Nc3ccccc3)nc2n1-c1ccccc1 [Example 101, 2-Phenylamino-8-phenyl-8H-pyrido[2,3-d]pyrimidin-7-one] | – | – | – | – | – | 1700 nM | – | – | 21200 nM
9 | O=c1ccc2cnc(Nc3ccccc3)nc2n1C1CC2CCC1C2 (stereo not shown) [Example 180, 8-Bicyclo[2.2.1]hept-2-yl-2-phenylamino-8H-pyrido[2,3-d]pyrimidin-7-one] | – | – | 173 nM | 12000 nM | 75 nM | 38 nM | 27800 nM | 503 nM | –
10 | O=c1ccc2cnc(Nc3ccc(-n4cccn4)cc3)nc2n1C1CCCCC1 [Example 162, 8-Cyclohexyl-2-(4-pyrazol-1-yl-phenylamino)-8H-pyrido[2,3-d]pyrimidin-7-one] | – | – | – | 19700 nM | – | – | 17100 nM | – | –
11 | CCN(CC)CCOc1ccc(Nc2ncc3ccc(=O)n(CC)c3n2)cc1 [Example 52, 2-[4-(2-Diethylaminoethoxy)-phenylamino]-8-ethyl-8H-pyrido[2,3-d]pyrimidin-7-one] | – | – | 2340 nM | – | 750 nM | 160 nM | – | 2660 nM | 1030 nM
12 | CCn1c(=O)ccc2cnc(Nc3ccncc3)nc21 [Example 50, 8-Ethyl-2-(pyridin-4-ylamino)-8H-pyrido[2,3-d]pyrimidin-7-one] | – | – | – | – | – | 2000 nM | – | – | 15000 nM
13 | O=c1ccc2cnc(Nc3ccc(N4CCC(CCO)CC4)cc3)nc2n1C1CCCC1 [Example 196, 8-Cyclopentyl-2-{4-[4-(2-hydroxy-ethyl)-piperidin-1-yl]-phenylamino}-8H-pyrido[2,3-d]pyrimidin-7-one] | – | – | – | 1450 nM | – | – | 1060 nM | – | –
14 | O=c1ccc2cnc(Nc3ccccc3)nc2n1C1CCCCC1 [Example 131, 8-Cyclohexyl-2-phenylamino-8H-pyrido[2,3-d]pyrimidin-7-one] | – | – | 125 nM | 12400 nM | 79 nM | 47 nM | 16100 nM | 749 nM | –
15 | CCN(CC)CCOc1ccc(Nc2ncc3ccc(=O)n(C(C)C)c3n2)cc1 [Example 59, 2-[4-(2-Diethylaminoethoxy)-phenylamino]-8-isopropyl-8H-pyrido[2,3-d]pyrimidin-7-one] | – | – | 800 nM | – | 80 nM | 45 nM | – | 1240 nM | 4430 nM
16 | O=c1ccc2cnc(Nc3ccc(N4CCC(O)CC4)cc3)nc2n1C1CCCC1 [Example 198, 8-Cyclopentyl-2-[4-(4-hydroxy-piperidin-1-yl)-phenylamino]-8H-pyrido[2,3-d]pyrimidin-7-one] | – | – | – | – | – | – | – | – | 1100 nM
17 | CC1CC(C)CN(c2ccc(Nc3ncc4ccc(=O)n(C5CCCCC5)c4n3)cc2)C1 (stereo not shown) [Example 167, 8-Cyclohexyl-2-[4-(3,5-dimethyl-piperidin-1-yl)-phenylamino]-8H-pyrido[2,3-d]pyrimidin-7-one] | – | – | – | 20600 nM | – | – | 33100 nM | – | –
18 | CN1CCN(c2ccc(Nc3ncc4ccc(=O)n(CCCOCc5ccccc5)c4n3)cc2)CC1 [Example 115, 8-(3-Benzyloxy-propyl)-2-[4-(4-methyl-piperazin-1-yl)-phenylamino]-8H-pyrido[2,3-d]pyrimidin-7-one] | – | – | – | – | – | – | – | – | 545 nM
